Results: patent US6765014B1, “1-Acyl-7-nitroindoline derivatives, their preparation and their use as photocleavable precursors” (Medical Research Council, priority 1999, dated 2004)
One block for each molecule: values may come before it.

Experiments:
[1] = Comparative photolysis in aqueous solution (Rayonet photochemical reactor, UV-VIS); format: physicochemical; conditions: for Time required for half-maximal photolysis: pH 7 (5:95), 16×350 nm lamps; for Photolysis upon irradiation: near-UV light, UV-visible spectrum of irradiated solution, conditions for 24 not given
Experimental: Comparative photolysis of methyl 1-acetyl-7-nitroindoline-5-acetate 16 and 1-acetyl-4-methoxy-7-nitroindoline 25 in aqueous solution. Separate 1 ml samples of each compound [0.0896 mM in EtOH-25 mM Na phosphate, pH 7 (5:95)] in 1 cm path length optical cells were photolysed simultaneously for 0, 0.25, 0.5, 1, 2, 4, 6 and 8 min in a Rayonet photochemical reactor (16×350 nm lamps) and UV-VIS spectra were recorded after each irradiation period. FIGS. 4 and 5 show the time course of photolysis for 16 and 25 respectively.
Comparative photolysis of 1-acetyl-4-methoxy-7-nitroindoline 25 and 1-acetyl-4-methoxy-[…] 30 in aqueous solution. Separate 1 ml samples of each compound [0.0748 mM in EtOH-25 mM Na phosphate, pH 7 (5:95)] in 1 cm path length optical cells were photolysed simultaneously for 0, 0.25, 0.5, 1, 2, 4 and 6 min in a Rayonet photochemical reactor (16×350 nm lamps) and UV-VIS spectra were recorded after each irradiation period. FIGS. 6 and 7 show the time course of photolysis for 25 and 30 respectively.
With the relative merits of the substitution pattern on the aromatic ring established, the effect of the more powerfully electron-releasing 4-dimethylamino group was probed. The required indole 32 was prepared via the semicarbazone 31 from N,N-dimethyl-2-methyl-3-nitroaniline by a modified Leimgruber-Batcho procedure (30). […] Nitration as before with NaNO3-TFA gave a complex mixture, from which the 5-nitro compound 34 was separated by chromatography. To achieve isolation of the required 7-nitro isomer 36, the remaining material was hydrolysed and the products chromatographed. The 5,7-dinitroindoline 35 was obtained in pure form, together with fractions that contained the presumed 7-nitroindoline. Acetylation of these combined fractions provided the desired material 36 in poor overall yield. Its structure was confirmed by nOe enhancement of the 5-proton upon irradiation of the dimethylamino signal. In the related 5-nitro isomer 34, irradiation of the dimethylamino signal had no effect on the integrated intensity of either aromatic proton signal. […] The series of compounds described in this latter series of experiments could be coupled to effector moieties, e.g. as described for compounds 10 and 21. [drawing 8] [drawing 9] [drawing 10]

[2] = Photolysis and product analysis (HPLC and quantitative amino acid analysis); format: physicochemical; conditions: for Extent of photolysis (conversion): 0.5 mM, 25 mM ammonium phosphate pH 7.0, 3 min mercury arc lamp; for Stoichiometry of effector release upon photolysis: quantitative amino acid analysis of part-photolyzed solutions; for Measured concentration of glutamate as % of value calculated from extent of photolysis: 25 mM ammonium phosphate pH 7.0 ± 1 mM dithiothreitol
Experimental: Separate solutions of 10 (each 0.50 mM) in 25 mM ammonium phosphate, pH 7.0±1 mM dithiothreitol were irradiated in a 1-mm path length cell for 3 min using light from a mercury arc lamp which passed through Hoya 340 and Schott WG 305 filters before illuminating the cell. The extent of photolysis was determined by reverse-phase HPLC (mobile phase 25 mM Na phosphate, pH 6.0+10% MeOH, 1.5 ml/min). Quantification was based on peak heights compared to those of unphotolyzed controls. Aliquots of the photolyzed solutions were also subjected to quantitative amino acid analysis (see General Procedures).
Photolysis and product analysis for compound 21. A solution (0.5 mM) of 21 in 25 mM ammonium phosphate, pH 7.0 was irradiated as described for compound 10 and the photolyzed solution was quantified by reverse-phase HPLC and amino acid analysis.

[3] = Relative photolysis efficiencies of 8 and 11 (xenon arc lamp, HPLC); format: physicochemical
Experimental: Relative photolysis efficiencies of 8 and 11. A solution containing both 8 and 11 (each 0.5 mM) in 25 mM Na phosphate, pH 7.0 was irradiated in a 1-mm path length cell using light from a 100 W xenon arc lamp which passed through Hoya 340 and Schott WG 305 filters before. illuminating the cell. The extent of photolysis of each compound was determined by reverse-phase HPLC analysis (mobile phase 10 mM Na phosphate, pH 6.0+50% MeOH, 1.5 mL/min). Retention times for 8 and 11 were 3.8 and 7.8 min respectively. After 2 min irradiation, the extents of conversion for compounds 8 and 11 were 40 and 16% respectively.
Upon comparative photolysis of the 1-glutaryl derivatives 8 and 11 in aqueous solutions at pH 7 and without excluding atmospheric oxygen, the bromo compound 11 was indeed converted ˜2.5-fold less efficiently than 8. Photolysis of 8 proceeded cleanly, as shown by an isosbestic point at 365 nm in spectra of a solution photolyzed for increasing times to at least 65% conversion, but the photoproduct of the protecting group was not the 7-nitroindoline 12 (λmax 450 nm) expected from the previous report (6a). […] Further confirmation of the presence of a nitroso group was that treatment of 13, R=CH2CO2Me) with a thiol readily abolished the 412 nm chromophore, presumably by conversion to the corresponding hydroxylamine (11, 12). […] In control experiments, photolysis of the glutaryl compound 8 in CH2Cl2-dioxane-H2O (2:3:0.05) cleanly gave the expected (6a) nitroindoline 12.

glutamate ion channels = assay: Whole-cell patch clamp of cultured rat cerebellar granule neurones, with and without flash photolysis; format: cell-based
Experimental: The caged L-glutamate reagent 10 was tested in primary cultures of rat cerebellar granule neurones for its pharmacological actions and ability to effect photolytic activation of glutamate ion channels. All electrophysiological experiments were performed in Mg^2+-free mammalian Ringer's solution containing 100 μM glycine. Cells were voltage clamped at −65 mV with whole-cell patch clamp (17) and the glutamate sensitivity was established by responses to 20 ms pulses of L-glutamate, applied at a frequency of 0.25 Hz by iontophoresis from a 1-μm tipped glass pipette. […] The latter most likely arises from glutamate diffusion away from the photolyzed region. The time course of the initial decline may represent desensitization of non-NMDA glutamate channels.
During the slow decline there was a clear increase in the low frequency noise of the glutamate-activated current compared to baseline, consistent with gating of glutamate-activated ion channels.

[4] = Hydrolytic stability of 1-acyl-7-nitroindolines (reverse-phase HPLC); format: physicochemical; conditions: 62.5 mM Na phosphate, pH 12.01, 30° C.
Experimental: The extent of hydrolysis was determined by reverse-phase HPLC analysis (mobile phase 25 mM Na phosphate, pH 6.0+10% MeOH, 1.5 ml/min). […] Quantification was based on peak heights compared to those of unhydrolysed controls (to). First-order rate constants for hydrolysis were obtained from single exponential fits to the data.
In addition to the release rate of the bioeffector species following flash irradiation, important properties of any caged compound include stability in aqueous solution and its extent of photolysis upon a single flash irradiation.
In this context, hydrolytic stability refers to the amide bond. […] The use of the free acids avoided analytical complications from the much faster cleavage of the ester group.

[5] = Quantum yield estimation by laser flash irradiation (347 nm); format: physicochemical
Experimental: Quantum yield estimation for 10. A solution of 1-(2-nitrophenylethyl) phosphate and 10 (each 0.50 mM) together with dithiothreitol (5 mM) was prepared in 25 mM ammonium phosphate, pH 7.0. Aliquots of the solution ([…]) in a 1-mm path length cell were each subjected to one 50-ns flash from a frequency-doubled ruby laser, that delivered 347 nm light with an average energy of 90 mJ (range 83-104 mJ). The combined irradiated solutions were analyzed by reverse-phase HPLC (mobile phase 25 mM Na phosphate, pH 6.0+40% MeOH, 1.5 ml/min). Retention times were 4.2 and 7.2 min for 10 and 1-(2-nitrophenylethyl) phosphate respectively. Quantification was based on peak heights compared to those of the unphotolyzed control. Extinction coefficients at 347 nm used to calculate the relative quantum yields were 2720 and 510 M^−1cm^−1 for 10 and 1-(2-nitrophenylethyl) phosphate respectively. Photolysis and product analysis for compounds 10 and 18.
The product quantum yield (Qp) for photolysis of the glutamate derivative 10 was determined by laser flash irradiation (347 nm) of a solution containing 10 and 1-(2-nitrophenyl)ethyl phosphate (16) (both 0.5 mM in pH 7 phosphate buffer). Conversions by a single flash (˜90 mJ) were 9.7 and 23% respectively (reverse-phase HPLC), leading to Qp=0.043 by comparison with the known value (16) (0.54) for the caged phosphate and after correction for the different extinction coefficients at the irradiation wavelength. Although the value of Qp is low, the relatively high extinction coefficient at ˜350 nm (˜2700 M^−1cm^−1) compared to that of “classical” 2-nitrobenzyl-type caged compounds (˜600 M^−1cm^−1) enables similar photolytic efficiency to be achieved.

[6] = 0.0896 mM in EtOH-25 mM Na phosphate
[7] = 0.0748 mM in EtOH-25 mM Na phosphate

Time required for half-maximal photolysis [1, 6]: ~1.2 min
SMILES: COC(=O)Cc1cc2c(c([N+](=O)[O-])c1)N(C(C)=O)CC2 [Compound 16, Methyl 1-acetyl-7-nitroindoline-5-acetate]

Extent of photolysis (conversion) [2]: 38%
Stoichiometry of effector release upon photolysis [2]: stoichiometric release of GABA
SMILES: COC(=O)Cc1cc2c(c([N+](=O)[O-])c1)N(C(=O)CCCN)CC2 [Compound 21, Methyl 1-(4-aminobutanoyl)-7-nitroindoline-5-acetate]

Extent of conversion (photolysis) ([3]; after 2 min irradiation, 0.5 mM each, 25 mM Na phosphate pH 7.0, 100 W xenon arc lamp): 16%
Fold less efficient photolytic conversion than 8 ([3]; aqueous solution pH 7, atmospheric oxygen not excluded): ~2.5 fold
SMILES: O=C(O)CCCC(=O)N1CCc2cc(Br)cc([N+](=O)[O-])c21 [Compound 11, 5-Bromo-1-glutaryl-7-nitroindoline]

Photolysis upon irradiation [1]: photostable
SMILES: COC(=O)Cc1cc([N+](=O)[O-])c(OC)c2c1N(C(C)=O)CC2 [Compound 24, Methyl 1-acetyl-4-methoxy-5-nitroindoline-7-acetate]

SMILES: COC(=O)Cc1cc(N=O)c2[nH]ccc2c1 [Compound 13, Methyl 7-nitrosoindole-5-acetate]
Effect of photolysis by-product on glutamate receptors or resting membrane properties (glutamate ion channels; control experiments during and after photolysis): no adverse effect

Extent of photolysis (conversion) [2]: ~51%
Measured concentration of glutamate as % of value calculated from extent of photolysis [2]: 97-108%
SMILES: N[C@@H](CCC(=O)N1CCc2cc(CC(=O)O)cc([N+](=O)[O-])c21)C(=O)O [Compound 18, 1-[S-(4-amino-4-carboxybutanoyl)]-7-nitroindoline-5-acetic acid]

Time required for half-maximal photolysis [1, 7]: ~0.9 min
Fold less efficient photolysis than 25 ([1]; aqueous solution): ~2 fold
SMILES: COc1c(C)cc([N+](=O)[O-])c2c1CCN2C(C)=O [Compound 30, 1-Acetyl-4-methoxy-5-methyl-7-nitroindoline]

melting point: 177 to 178 °C
Photolysis upon irradiation [1]: no detectable photolysis
SMILES: CC(=O)N1CCc2c(N(C)C)ccc([N+](=O)[O-])c21 [Compound 36, 1-acetyl-4-N,N-dimethylamino-7-nitroindoline]

Time required for half-maximal photolysis [1, 7]: ~0.4 min
Time required for half-maximal photolysis [1, 6]: ~0.4 min
Fold more efficient photolysis than 30 ([1]; aqueous solution): ~2 fold
Fold more efficient photolysis than 16 ([1]; aqueous solution, equal concentration): ~3 fold
SMILES: COc1ccc([N+](=O)[O-])c2c1CCN2C(C)=O [Compound 25, 1-Acetyl-4-methoxy-7-nitroindoline]

Half-times for hydrolysis (amide hydrolysis) [4]: 6 h
Extinction coefficient at ~350 nm [5]: ~2700 M⁻¹ cm⁻¹
Conversion by a single flash ([5]; 347 nm laser flash, ~90 mJ, 0.5 mM, pH 7 phosphate buffer): 9.7%
Product quantum yield (Qp) ([5]; 347 nm, by comparison with caged phosphate, corrected for extinction coefficients): 0.043
Extinction coefficient at 347 nm ([5]; used to calculate relative quantum yields): 2720 M⁻¹ cm⁻¹
Extent of photolysis (conversion) [2]: ~35%
Measured concentration of glutamate as % of value calculated from extent of photolysis [2]: 90-94%
Stoichiometry of effector release upon photolysis [2]: 1:1 stoichiometry
Efficiency of glutamate release upon photolysis, 10 vs the salt of its free acid ([2]; separate experiments): equal efficiency
SMILES: COC(=O)Cc1cc2c(c([N+](=O)[O-])c1)N(C(=O)CC[C@H](N)C(=O)O)CC2 [Compound 10, Methyl 1-[S-(4-amino-4-carboxybutanoyl)]-7-nitroindoline-5-acetate]
Effect on peak response to iontophoretic pulses of L-glutamate (glutamate ion channels; 1 mM in bath, no photolysis): did not diminish
Activation of current in granule neurones by unphotolyzed caged compound (glutamate ion channels; 1 mM in bath, −65 mV, no photolysis): no activation of current
Time scale of L-glutamate release by flash photolysis (glutamate ion channels; 1 ms light pulse): on the same time scale as the light pulse
Rise of inward current after flash photolysis, exponential half-time (mean) (glutamate ion channels; 1 ms xenon arc flash, Schott UG11 filter, n=8): 0.74 ms
Fast decline of inward current, mean half-time (glutamate ion channels; after 1 ms xenon arc flash): 2.9 ms
Activity at glutamate ion channels of NMDA- and non-NMDA-activated types (glutamate ion channels; unphotolyzed compound): inactive
